Experimental data published in US20240245677A1, “SELECTED COMPOUNDS FOR TARGETED DEGRADATION OF BRD9” (C4 THERAPEUTICS, INC., priority 2021, published 2024).

Assay: Salt and cocrystal evaluation (equilibration, cooling, slow evaporation, anti-solvent, re-equilibration)
Assay type: physicochemical
Protocol: Compound 1 was investigated with a variety of salts to find additional morphic forms and cocrystals. This salt and cocrystal investigation for Compound 1 was performed with free form Pattern A*. This is a hydrate with medium crystallinity. […] Acetone, methanol, ethyl acetate and acetonitrile were used as evaluation solvents. Five crystallization methods, including equilibration, fast cooling, slow evaporation, addition of anti-solvent and re-equilibration, were applied to obtain salt or cocrystal hits. From these investigations only one crystalline form—a urea cocrystal Form P was identified.
Based on the pKa of free form, 14 acids were selected for evaluation in acetone and methanol. About 30 mg of Compound 1 free form and 1 or 2 equivalents of salt forming agents 5 were weighed into 2 mL glass vials. 200 μL of acetone or methanol was added. […] To avoid degradation, experiments with strong acids were conducted without heating. Samples were stirred at 25° C. for 2 days. Obtained suspensions were taken out and centrifuged. Then wet cakes were dried at 25° C. under vacuum for 2 h. Obtained solids were analyzed by XRPD and results were summarized.
To obtain crystalline salts, another two solvents including ethyl acetate and acetonitrile were added as solvents. About 30 mg of Compound 1 free form and 1 or 2 equivalents of salt forming agents were weighed into 2 mL glass vials. 400 μL of ethyl acetate or 300 μL of acetonitrile was added. Samples were stirred at 25° C. for 2 days. Obtained solids were analyzed by XRPD and results were summarized.
Nicotinamide and urea were selected as crystallization agents for cocrystal evaluation. Acetone, methanol, ethyl acetate and acetonitrile were used as solvents. About 30 mg of Compound 1 free form, and 1 equivalent of crystallization agent were weighed into 2 mL glass vials. […] of acetone, 200 μL of methanol, […] of ethyl acetate or 300 µL of acetonitrile was added. Obtained suspensions were stirred at 25° C. for 2 days. Obtained solids were analyzed by XRPD and results were summarized.
Supernatants obtained from equilibration experiments were cooled to 5° C. and stirred at 5° C. for 3 days. Then obtained suspensions were centrifuged at 5° C. and solids were dried under vacuum at 25° C. for 2 h. No crystalline salt was obtained.
No crystalline hits were obtained.
Amorphous salts from above experiments were re-equilibrated at 25° C. for crystallization. No crystalline salt hits were obtained.

Compound: COc1cc(-c2cn(C)c(=O)c(C)c2C)cc(OC)c1CN1CC[C@H](N2CCN(c3ccc(N[C@H]4CCC(=O)NC4=O)cc3F)CC2)C(F)(F)C1 [Compound 1, (S)-3-((4-(4-((S)-1-(2,6-dimethoxy-4-(1,4,5-trimethyl-6-oxo-1,6-dihydropyridin-3-yl)benzyl)-3,3-difluoropiperidin-4-yl)piperazin-1-yl)-3-fluorophenyl)amino)-piperidine-2,6-dione]
- Results (re-equilibration for 8 days) Acetone (1.05 equiv. Sulfuric acid, Acetone, +200 μL EA): Free form Pattern B*
- Results (re-equilibration for 8 days) Acetone (2.10 equiv. Hydrochloric acid, Acetone, +100 μL ACN): +100 μL ACN, Gel-like sample
- Results (re-equilibration for 8 days) Acetone (2.10 equiv. Methanesulfonic acid, Acetone, +200 μL EA): +200 μL EA, Gel-like sample
- Results (anti-solvent addition) A Acetone (2.10 equiv. Trifluoroacetic acid, Acetone, +400 μL MTBE): Clear solution
- Results (anti-solvent addition) C EA, XRPD (2.10 equiv. Trifluoroacetic acid, EA, +200 μL MTBE, suspension, AF = Amorphous form): XRPD: AF*
- Results (cooling) A Acetone (cooled to 5° C., 3 days, 1.05 equiv. Fumaric acid, Acetone): Clear Solution
- Results (cooling) A Acetone (cooled to 5° C., 3 days, 1.05 equiv. Sulfuric acid, Acetone): Clear Solution
- Results (cooling) B MeOH (cooled to 5° C., 3 days, 1.05 equiv. Sulfuric acid): Clear Solution
- Results (cooling) B MeOH (cooled to 5° C., 3 days, 2.10 equiv. Citric acid): Clear Solution
- Results (cooling) A Acetone (cooled to 5° C., 3 days, 2.10 equiv. Fumaric acid, Acetone): Clear Solution
- Results (cooling) A Acetone (cooled to 5° C., 3 days, 2.10 equiv. Hydrochloric acid, Acetone): Clear Solution
- Results (cooling) B MeOH (cooled to 5° C., 3 days, 2.10 equiv. Hydrochloric acid): Clear Solution
- Results (cooling) A Acetone (cooled to 5° C., 3 days, 2.10 equiv. L-Malic acid, Acetone): Clear Solution
- Results (cooling) B MeOH (cooled to 5° C., 3 days, 2.10 equiv. Maleic acid): Clear Solution
- Results (cooling) B MeOH (cooled to 5° C., 3 days, 2.10 equiv. Methanesulfonic acid): Clear Solution
- Results (cooling) A Acetone (cooled to 5° C., 3 days, 2.10 equiv. Succinic acid, Acetone): Clear Solution
- Results (cooling) A Acetone (cooled to 5° C., 3 days, 2.10 equiv. Sulfuric acid, Acetone): Clear Solution
- Results (cooling) B MeOH (cooled to 5° C., 3 days, 2.10 equiv. Sulfuric acid): Clear Solution
- Results (cooling) D ACN (cooled to 5° C., 3 days, 2.10 equiv. Trifluoroacetic acid, ACN): Clear Solution
- Results (cooling) A Acetone (cooled to 5° C., 3 days, 2.10 equiv. Trifluoroacetic acid, Acetone): Clear Solution
- Results (cooling) C EA (cooled to 5° C., 3 days, 2.10 equiv. Trifluoroacetic acid, EA): Clear Solution
- Results (cooling) B MeOH (cooled to 5° C., 3 days, 2.10 equiv. Trifluoroacetic acid): Clear Solution
- Results (cooling) B MeOH (cooled to 5° C., 3 days, 2.10 equiv. p-Toluenesulfonic acid): Clear Solution
- Results A Acetone (equilibration, 1.05 equiv. Fumaric acid, Acetone): Clear solution
- Results A Acetone (equilibration, 1.05 equiv. Nicotinamide, Acetone): Clear solution
- Results A Acetone (equilibration, 1.05 equiv. Urea, Acetone): Clear solution
- Results A Acetone (equilibration, 2.10 equiv. Adipic acid, Acetone): Clear solution
- Results A Acetone (equilibration, 2.10 equiv. Fumaric acid, Acetone): Clear solution
- Results A Acetone (equilibration, 2.10 equiv. L-Malic acid, Acetone): Clear solution
- Results C EA (equilibration, 2.10 equiv. Methanesulfonic acid, EA, AF = Amorphous form): AF MSA salt*
- Results A Acetone (equilibration, 2.10 equiv. Succinic acid, Acetone): Clear solution
- Results D ACN (equilibration, 2.10 equiv. Trifluoroacetic acid, ACN): Clear solution
- Results A Acetone (equilibration, 2.10 equiv. Trifluoroacetic acid, Acetone): Clear solution
- Results C EA (equilibration, 2.10 equiv. Trifluoroacetic acid, EA): Clear solution
